Laboratory results reported in patent US20140256663A1, “Amphotericin Analogous Compounds and Pharmaceutical Compositions Containing Them” (CENTRO DE INVESTIGACION Y DE ESTUDIOS AVANZADOS DEL …, priority 2010, published 2014).
Entries after “also recorded” stand apart in the source; their conditions may differ.

Tests used:
[1] = test system: Saccharomyces cerevisae FY833(SC) cells; test: Viability of Saccharomyces cerevisae FY833 (SC) cells at various concentrations; format: cell-based; conditions: FIG. 1, various concentrations; listed as amide 1
Experimental: All derivatives were tested for antibiotic activity in yeast cultures of S. cerevisiae.

[2] = test system: Candida albicans ATCC 752; test: Antifungal activity in vitro by flow cytometry, Candida albicans ATCC 752; format: cell-based; conditions: ATCC752, 24 h at 37° C., read-out: CF50 Candida albicans ATCC 752
Experimental: (§1) The antifungal activity of the polyene macrolide derivate of the present invention was determined by flow cytometry method earlier described (Pinto et al., J. Medical Microbiology, 2009; 58, 1454-1462; Pina-Vaz and Rodriguez, Methods Mol. Biol. 2010; 638:281-289). For the test two strains of Candida albicans (ATCC 10231 and 752) and Candida kruzei were used. A cellular suspension of 1×10^6 UFC/mL was used, which has sown in 96-well plates. […] As controls were used: untreated yeasts (control of living cells), yeasts exposed to UV radiation (arrest, inhibition of proliferation), and yeasts exposed at temperature of 100° C. (dead yeasts). Cells were collected by centrifugation at 10,000×g for 10 min, they were washed once in phosphate buffer. […] of propidium iodide 0.1 mg/mL were added to the cell suspension. It was incubated during 30 minutes at room temperature and protected from light. Finally, the samples were analyzed by flow cytometry (Becton-Dickinson Facsc Calibur, laser argon 480 nm). The intrinsic parameters and fluorescence in the FL2 channel (yellow/orange fluorescence) for FUN and channel FL3 (red fluorescence, filter 630 nm) for propidium iodide were acquired and registered on a logarithmic scale for a minimum of 7500 events per sample. For data analysis, the quadrants were adjusted in a plot of data lines of fluorescence intensity of samples. […] These quadrants were used to quantify the percentile of cells showing altered fluorescence compared to drug-free controls.

human erythrocytes = test: Hemolytic assay on human erythrocytes; format: cell-based; conditions: 1 hour
Experimental: The hemotoxicity of the polyene macrolide derivative of the present invention was determined by measuring the toxicity to human erythrocytes (values HE50) using a method established by Cybulska, et al. (Cybulska, B., Borowski, E. and Gary-Bobo, M. Relationship between ionophoric and hemolytic activities of perimycin A and vacidin A, two polyene macrolide antifungal antibiotics. Biochem Pharmacol. 1989; 38(11): 1755-1762). For determining the haematoxicity 2 mL blood were obtained and placed in a tube with EDTA. The number of erythrocytes was counted in a Neubauer chamber, and 1×10^7 cells/mL were placed in test tubes. The erythrocytes were resuspended in 450 μL of KCl 150 mM+Tris 3 mM buffer. The erythrocytes were treated with concentrations of 0.01, 0.1, 1, 10 y 100 μM and incubated in a water bath for 1 hour. They were then centrifuged at 1500 rpm for 15 seconds; 150 μL were taken from the supernatant and placed in 96-well plates; the optical density of each group was measured using a plate reader at a wavelength of 550 nm. We included one tube with the drug solvent (DMSO 1%) as internal control. We also included one tube only with erythrocytes and 500 μl of buffer KCl 150 mM+Tris 3 mM, which we consider as a negative control group and a tube with 500 μl of red cells and 35 mM NaCl (positive control).

[3] = Unit channel studies in chicken egg lecithin bilayers with cholesterol; conditions: for Opening probability, channel type I / Opening probability, channel type II / Opening probability, channel type III / Opening probability, channel type IV / Opening probability, channel type V / Opening probability, channel type VI: 200 μM compound, 30 mol % cholesterol, 27° C.
Experimental: The activity is determined by the presence of the different channels formed by polyenes in the lipid bilayer (Cotero, et al., supra; Venegas, et al., supra). […] These values were determined by the technique of unit channel delineated above.
Unit channel studies were performed according to procedures described earlier (Cotero, et al., supra, Venegas, et al., supra). Required liposomal suspensions were prepared using lecithin with cholesterol or ergosterol. These suspensions were placed in an ultrasonic bath for 15 minutes to produce unilamellar vesicles. Subsequently, the suspension was placed in a 100 μl eppendorf and a lipid bilayer was formed on the tip of a micro-electrode. The unit channels of amphotericin and of the invented compounds were incorporated to this bilayer. The unit channel current of the various compounds was recorded with an electrometer, and then these records were analyzed by determining the activity of the compounds and the characteristics of the channels formed.
The activity is determined by the presence of the various channels formed by polyenes in the lipid bilayer (Cotero, et al., supra, Venegas, et al., supra). […] This conductance is the effect of all the channels present and was determined by the unit channel technique earlier described.

[4] = test system: human renal cells 293Q (ATCC CLR-1573); test: MTT cytotoxicity on human renal cells 293Q; conditions: human renal cells 293Q, 24 h
Experimental: For cytotoxicity studies human kidney cells (ATCC No. CRL-1573) were used. The cells were cultured with Minimum Essential Medium (MEM) (GIBCO BRL), supplemented with 10% fetal bovine serum (FBS) (GIBCO BRL), 2 mM 1-glutamine (GIBCO BRL), 1.5 gL Na2HCO3 (Sigma Chemical Co), 0.1 mM nonessential amino acids (Sigma Chemical Co), and 1 mM sodium pyruvate (In vitro, S.A.). The technique of bromide of 3(4,5-dimethylthiazol-2-yl)-2,5-diphenyl tetrazolium (MTT) (Sigma Chemical Co) was applied; a technique which is based on the conversion of dye to an insoluble precipitate called formazan. This test is used as an indicator of mitochondrial function in living cells that measures the metabolic capacity in cells and serves as an indicator of cytotoxicity. […] (Mosman […], Immunol Methods, 65: 55-63). The cytoxicity test consisted of planting 10,000 cells per well in 96-well plates (Corning Incorporated Costar) in MEM and incubate them (Nuaire us autoflow CO2 water-jacketed incubator) during 24 h at 37° C. and 5% CO2. […] After incubation, cells were treated and incubated anew for 24 h. After this time the medium was aspirated carefully and replaced with 200 μL of fresh medium, and 50 μL of MTT was added for a total volume of 250 μl. They were then incubated for 4 hours in the above conditions. After that time the medium with MTT was carefully removed and 200 μL of DMSO and 25 μL of Sorensen buffer (0.1 M glycine+0.1 M NaCl at pH 10.5) were added to each well. The plate was then mixed until the formazan crystals dissolved, and it was finally read in a plate reader (Microplate Limaning System Ultramark, Biorad) at a wavelength of 550 nm.
For the tests, we used human renal ephythelial cells (293Q) (ATCC Catalog No. CRL-1573). The cells were cultured with Minimum Essential Medium (MEM) (GIBCO BRL) supplemented with 10% fetal bovine serum (FBS) (GIBCO BRL), 2 mM L-glutamine (GIBCO BRL), 1.5 g/L Na2HCO3 (Sigma Chemical Co), 0.1 mM nonessential amino acids (Sigma Chemical Co), and 1 mM sodium pyruvate (In vitro, S.A.). For cytoxicity tests, we applied the technique of bromide 3(4,5-dimethylthiazol-2-yl)-2,5-diphenyl tetrazolium (MTT) (Sigma Chemical Co), which is based on the conversion of the dye to an insoluble precipitate called formazan. This test is used as an indicator of mitochondrial function in living cells which measures the metabolic capacity in cells and serves as an indicator of cytotoxicity. (Wang, H. Z., Chang, C. H., Lin, C. P., Tsai, M. C). Using MTT viability assay to test the cytotoxicity of antibiotics and steroid to cultured porcine corneal endothelial cells. J. Ocul. Pharmacol. Ther. 1996; 12: 35-43). For the essay 10,000 cells were seeded per well in 96-well plates (Corning Incorporated Costar) in the medium already indicated and incubated for 24 h at 37° C. and 5% CO2. […] After incubation, cells were treated and incubated again for 24 h. The medium was carefully aspirated and replaced with 200 μl fresh medium, adding 50 μl MTT solution for a total volume of 250 μl. They were then incubated for 4 hours in the above conditions. The medium was carefully removed with MTT and 200 μl DMSO and 25 μl Sorense buffer (0.1 M glycine+0.1 M NaCl at pH 10.5) was added to each well. Then the plate was mixed until the formazan crystals dissolved; it was finally read in a reader plate (Microplate Limaning System Ultramark, Biorad) at a wavelength of 550 nm.

Candida kruzei = test: Antifungal activity in vitro by flow cytometry, Candida kruzei; format: cell-based; conditions: 24 h at 37° C., read-out: CF50 Candida kruzei
Experimental: as §1

[5] = test system: Candida albicans ATCC 10231; test: Antifungal activity in vitro by flow cytometry, Candida albicans ATCC 10231; format: cell-based; conditions: ATCC10231, 24 h at 37° C., read-out: CF50 Candida albicans ATCC 10231
Experimental: as §1

Row | SMILES | inhibitory capacity / potency on SC cells compared to AmB [1] | IC50 [2] [µM] | HE50 (Hemolysis 50) (human erythrocytes) [µM] | Opening probability, channel type I [3] [%] | Opening probability, channel type II [3] [%] | Opening probability, channel type III [3] [%] | Opening probability, channel type IV [3] [%] | Opening probability, channel type V [3] [%] | Opening probability, channel type VI [3] | activity of transmembranal channels in the cholesterol membrane ([3]; in words, compared to AmB) | DT50 CitE50 [4] [µM] | IC50 (Candida kruzei) [µM] | IC50 [5] [µM]
1 | CC1OC(O[C@H]2/C=C/C=C/C=C/C=C/C=C/C=C/C=C/C(C)[C@@H](O)C(C)C(C)OC(=O)C[C@H](O)C[C@H](O)CC[C@@H](O)[C@H](O)C[C@H](O)C[C@]3(O)CC(O)[C@@H](C(=O)NCc4ccccc4)C(C2)O3)C(O)C(N)C1O (stereo partly drawn) [A-1, N-benzylamide of AmB] | the most similar; also recorded: the highest power of the derivatives | > 100 | 52 | 2 | 1 | <1 | <1 | <1 | <1% | low activity of transmembranal channels | 100 | > 100 | > 100
2 | CC1OC(O[C@H]2/C=C/C=C/C=C/C=C/C=C/C=C/C=C/C(C)[C@@H](O)C(C)C(C)OC(=O)C[C@H](O)C[C@H](O)CC[C@@H](O)[C@H](O)C[C@H](O)C[C@]3(O)CC(O)[C@@H](C(=O)NC4CCCCC4)C(C2)O3)C(O)C(N)C1O (stereo partly drawn) [A-2, N-cycloheximide of AmB] |  | > 100 | 45 | 5 | <1 | <1 | <1 | <1 | <1% |  | 120 | > 100 | > 50
3 | CC(NC(=O)[C@@H]1C(O)C[C@@]2(O)C[C@@H](O)C[C@@H](O)[C@H](O)CC[C@@H](O)C[C@@H](O)CC(=O)OC(C)C(C)[C@H](O)C(C)/C=C/C=C/C=C/C=C/C=C/C=C/C=C/[C@H](OC3OC(C)C(O)C(N)C3O)CC1O2)c1ccccc1 (stereo partly drawn) [A-4, N—(S)-α-phenylethylamide of AmB] |  | > 100 | 46 | 7 | 3 | 1 | <1 | <1 | <1% |  | 80 | > 100 | > 50
4 | CC1OC(O[C@H]2/C=C/C=C/C=C/C=C/C=C/C=C/C=C/C(C)[C@@H](O)C(C)C(C)OC(=O)C[C@H](O)C[C@H](O)CC[C@@H](O)[C@H](O)C[C@H](O)C[C@]3(O)CC(O)[C@@H](C(=O)N[C@H](C)c4ccccc4)C(C2)O3)C(O)C(N)C1O (stereo partly drawn) [A-5, N—(R)-α-phenylethylamide of AmB] |  | > 100 | 42 | 10 | 2 | <1 | <1 | <1 | <1% |  | 100 | > 100 | > 50
5 | COC(=O)C(Cc1c[nH]c2ccccc12)NC(=O)[C@@H]1C(O)C[C@@]2(O)C[C@@H](O)C[C@@H](O)[C@H](O)CC[C@@H](O)C[C@@H](O)CC(=O)OC(C)C(C)[C@H](O)C(C)/C=C/C=C/C=C/C=C/C=C/C=C/C=C/[C@H](OC3OC(C)C(O)C(N)C3O)CC1O2 (stereo partly drawn) [A-6, N-(L)-tryptophanamide of AmB] |  | > 100 | 58 | 23 | 2 | <1 | <1 | <1 | N.O. |  | 120 | > 100 | > 50
6 | CC1/C=C/C=C/C=C/C=C/C=C/C=C/C=C/[C@H](OC2O[C@H](O)[C@@H](O)[C@H](N)[C@@H]2O)C[C@@H]2O[C@](O)(C[C@@H](O)C[C@@H](O)[C@H](O)CC[C@@H](O)C[C@@H](O)CC(=O)O[C@@H](C)[C@H](C)[C@@H]1O)C[C@H](O)[C@H]2C(=O)NCCc1c[nH]cn1 (stereo partly drawn) [A-8, N-histaminamide of AmB] |  | > 100 |  |  |  |  |  |  |  |  |  | > 100 | > 50
